The supplement of paper PMC11061612

Key:
Assay in all cases: Bliss excess, mean over the matrix (fraction); higher = more synergy
[1] = system: BALL-1 (B-Lymphoblastic Leukemia)
Method in brief: (§1)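 Bliss excess equals the observed combination effect minus the expected value EA + EB − EA·EB, where EA and EB are the effects of each agent alone. Combination Emax is the second-highest inhibition within the matrix. Inhibition was scaled from CellTiter-Glo 2.0 luminescence, with 0 set by vehicle wells and 1 by blank wells, after 72 hours of two-drug dosing of cells plated in 1536-well plates.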

[2] = system: Becker (Low Grade Glioma)
Method in brief: as §1

[3] = system: CML-T1 (Chronic Myelogenous Leukemia)
Method in brief: as §1

[4] = system: Calu-6 (Non-Small Cell Lung Carcinoma)
Method in brief: as §1

ES-2 (Ovarian Carcinoma) = system: ES-2 (Ovarian Carcinoma)
Method in brief: as §1

[5] = system: JHH-1 (Hepatocellular Carcinoma)
Method in brief: as §1

[6] = system: KYSE-70 (Esophageal Squamous Cell Carcinoma)
Method in brief: as §1

[7] = system: LAMA-84 (Chronic Myelogenous Leukemia)
Method in brief: as §1

[8] = system: LOUCY (T-Lymphoblastic Leukemia)
Method in brief: as §1

[9] = system: NCI-H1563 (Lung Adenocarcinoma)
Method in brief: as §1

[10] = system: NCI-H810 (Non-Small Cell Lung Carcinoma)
Method in brief: as §1

[11] = system: NKM-1 (Acute Myeloid Leukemia)
Method in brief: as §1

[12] = system: OVTOKO (Ovarian Carcinoma)
Method in brief: as §1

[13] = system: RERF-LC-KJ (Lung Adenocarcinoma)
Method in brief: as §1

[14] = system: RL95-2 (Endometrial Carcinoma)
Method in brief: as §1

[15] = system: RMG-I (Ovarian Carcinoma)
Method in brief: as §1

[16] = system: RPMI-8866 (Chronic Myelogenous Leukemia)
Method in brief: as §1

[17] = system: SJRH30 (Rhabdomyosarcoma)
Method in brief: as §1

[18] = system: SK-MM-2 (Plasma Cell Myeloma)
Method in brief: as §1

[19] = system: SW684 (Other Solid Carcinomas)
Method in brief: as §1

Compound	Bliss excess [1]	Bliss excess [2]	Bliss excess [3]	Bliss excess [4]	Bliss excess (ES-2 (Ovarian Carcinoma))	Bliss excess [5]	Bliss excess [6]	Bliss excess [7]	Bliss excess [8]	Bliss excess [9]	Bliss excess [10]	Bliss excess [11]	Bliss excess [12]	Bliss excess [13]	Bliss excess [14]	Bliss excess [15]	Bliss excess [16]	Bliss excess [17]	Bliss excess [18]	Bliss excess [19]
Cc1cc2ncnn2cc1Nc1ncc2c(n1)n(C1CCOCC1)c(=O)n2C [AZD7648] + O=C(c1cc(Cc2n[nH]c(=O)c3ccccc23)ccc1F)N1CCN(C(=O)C2CC2)CC1 [Olaparib] (first compound max 10 µM, 7x7, partner max 10 µM)	0.0624	-0.0281	-0.0483	-0.0391	-0.0354	-0.0621	-0.0528	-0.0044	-0.0388	-0.0487	-0.0482	0.0104	-0.0433	-0.0546	-0.0444	-0.0685	0.0298	-0.0148	-0.0204	-0.0452
NC1(C(=O)N[C@@H](CCO)c2ccc(Cl)cc2)CCN(c2ncnc3[nH]ccc23)CC1 [Capivasertib] + CC(=O)c1c(C)c2cnc(Nc3ccc(N4CCNCC4)cn3)nc2n(C2CCCC2)c1=O [Palbociclib] (first compound max 10 µM, 7x7, partner max 10 µM)	0.0245	0.0816	0.0054	0.0488	0.0008	-0.0687	0.0188	0.0059	0.0824	-0.0456	-0.0346	-0.0204	-0.0688	0.0307	0.0215	-0.0098	0.0215	-0.0084	-0.0005	0.0176
NC1(C(=O)N[C@@H](CCO)c2ccc(Cl)cc2)CCN(c2ncnc3[nH]ccc23)CC1 [Capivasertib] + CC(C)n1c(=O)n(C)c2cnc3cc(F)c(-c4ccc(OCCCN5CCCCC5)nc4)cc3c21 [AZD1390] (first compound max 10 µM, 7x7, partner max 0.3 µM)	-0.0292	-0.0136	0.003	-0.0391	-0.0648	-0.0495	-0.063	-0.0119	-0.0101	0.0016	-0.0543	-0.111	-0.0752	-0.0017	-0.0709	-0.062	0.0503	-0.0373	-0.115	-0.0057
NC1(C(=O)N[C@@H](CCO)c2ccc(Cl)cc2)CCN(c2ncnc3[nH]ccc23)CC1 [Capivasertib] + CCN(CCO)CCCOc1ccc2c(Nc3cc(CC(=O)Nc4cccc(F)c4)[nH]n3)ncnc2c1 [AZD2811] (first compound max 10 µM, 7x7, partner max 1 µM)	0.0356	-0.0136	-0.0597	-0.0009	-0.0018	-0.0517	-0.0902	0.0341	-0.104	0.0242	-0.0195	-0.0299	-0.0109	-0.0135	-0.0051	-0.0214	0.0469	0.0224	-0.0412	-0.0532
NC1(C(=O)N[C@@H](CCO)c2ccc(Cl)cc2)CCN(c2ncnc3[nH]ccc23)CC1 [Capivasertib] + COc1nnc2ccc(N3CCC(c4ccc(OCCN5CCN(C)C(=O)[C@H]5C)cc4)CC3)nn12 [AZD5153] (first compound max 10 µM, 7x7, partner max 1 µM)	-0.0339	0.0414	-0.0125	-0.0081	0.0199	-0.0072	-0.0109	-0.0038	0.0912	-0.0218	0.0078	-0.0157	0.0497	-0.0437	-0.002	-0.0448	-0.0511	0.0117	-0.107	0.004
NC1(C(=O)N[C@@H](CCO)c2ccc(Cl)cc2)CCN(c2ncnc3[nH]ccc23)CC1 [Capivasertib] + C[C@@H]1COCCN1C2=NC(=NC(=C2)C3(CC3)[S@](=N)(=O)C)C4=C5C=CNC5=NC=C4 [AZD6738] (first compound max 10 µM, 7x7, partner max 10 µM)	-0.0066	-0.0135	-0.0774	-0.0777	-0.0716	-0.0294	-0.0691	0.0117	-0.0482	-0.0357	-0.0575	-0.0479	-0.0084	-0.0722	-0.0803	-0.0371	-0.0323	-0.0324	-0.0164	-0.0465
